Measured values published in ChEMBL document CHEMBL4261633, “Butenolides from a marine-derived fungus Aspergillus terreus with antitumor activities against pancreatic ductal adenocarcinoma cells” (Bioorg Med Chem, 2018).

Key:
Type in all cases: functional, cell-based
[1] = tested on: HT-29; test: Antiproliferative activity against human HT-29 cells after 24 hrs by CCK8 assay; conditions: HT-29, 24 h
[2] = tested on: BEAS-2B; test: Antiproliferative activity against human BEAS2B cells after 24 hrs by CCK8 assay
[3] = tested on: HepG2; test: Antiproliferative activity against human HepG2 cells after 24 hrs by CCK8 assay; conditions: HepG2, 24 h
[4] = tested on: PANC-1; test: Antiproliferative activity against human PANC1 cells after 24 hrs by CCK8 assay; conditions: PANC-1, 24 h
[5] = tested on: HCC1806; test: Antiproliferative activity against human HCC1806 cells after 24 hrs by CCK8 assay; conditions: HCC1806, 24 h

With `COC(=O)[C@]1(Cc2ccc3c(c2)C[C@H](O)C(C)(C)O3)OC(=O)C(O)=C1c1ccc(O)cc1` [BUTYROLACTONE V] as the compound, how does the IC50 [1] read?
Its IC50 is greater than 20 µM.

And the IC50 [2]?
The IC50 was greater than 20 µM.

And the IC50 [3]?
The IC50 was greater than 20 µM.

And the IC50 [4]?
The IC50 was greater than 20 µM.

What about the IC50 [5] of the same compound?
Its IC50 is greater than 20 µM.

Which results are given for `COC(=O)[C@]1(Cc2ccc(O)c(CC=C(C)C)c2)OC(=O)C(O)=C1c1ccc(O)cc1`?
IC50 [1]: > 20 µM; IC50 [2]: > 20 µM; IC50 [3]: > 20 µM; IC50 [4]: > 20 µM; IC50 [5]: > 20 µM

For `CC(C)(O)C1Cc2cc(C[C@H]3OC(=O)C(O)=C3c3ccc(O)cc3)ccc2O1` (some centres undefined), which IC50 [1] is on record?
Its IC50 is greater than 20 µM.

What about the IC50 [2] of the same compound?
The IC50 was greater than 20 µM.

And the IC50 [3]?
Its IC50 is greater than 20 µM.

What about the IC50 [4] of the same compound?
The IC50 was greater than 20 µM.

And the IC50 [5]?
Its IC50 is greater than 20 µM.

Which results are given for `COC(=O)[C@]1(Cc2ccc3c(c2)CC(C(C)(C)O)O3)OC(=O)C(O)=C1c1ccccc1` (some centres undefined)?
IC50 [1]: > 20 µM; IC50 [2]: > 20 µM; IC50 [3]: > 20 µM; IC50 [4]: > 20 µM; IC50 [5]: > 20 µM

How did the IC50 [2] turn out when `CC(=O)O[C@H]1C(=O)[C@@]2(C)[C@H]([C@H](OC(=O)c3ccccc3)[C@]3(O)C[C@H](OC(=O)[C@H](O)[C@@H](NC(=O)c4ccccc4)c4ccccc4)C(C)=C1C3(C)C)[C@]1(OC(C)=O)CO[C@@H]1C[C@@H]2O` [PACLITAXEL] was run?
The IC50 was 0.007 µM.

And the IC50 [3]?
The IC50 was 0.009 µM.

What about the IC50 [4] of the same compound?
Its IC50 is 0.04 µM.

What about the IC50 [5] of the same compound?
Its IC50 is 0.001 µM.

Which IC50 [1] does the source give for `COC(=O)[C@]1(Cc2ccc3c(c2)CC(O)C(C)(C)O3)OC(=O)C(O)=C1c1ccccc1` (some centres undefined) here?
Its IC50 is greater than 20 µM.

What about the IC50 [2] of the same compound?
The IC50 was greater than 20 µM.

What about the IC50 [3] of the same compound?
The IC50 was greater than 20 µM.

And the IC50 [4]?
Its IC50 is greater than 20 µM.

And the IC50 [5]?
Its IC50 is greater than 20 µM.
